Assay results reported in PubChem BioAssay AID226 (DTP/NCI, 2004).
Several values for one entry are separate records, joined by “and”; a condition that tells them apart may be missing. Equal values may be shown once. Toxic doses and inconclusive results are not listed.

Test system: B6C3F1 mice, intracerebral ependymoblastoma, median survival T/C
Assay: NCI In Vivo Anticancer Drug Screen. Data for tumor model Ependymoblastoma (intracerebral) in B6C3F1 mice
Conditions: endpoint: median survival time, higher = longer survival
Description: The antitumor activity of compounds was measured in mice bearing transplantable tumors. Survival or tumor size were measured and the results are expressed as the measurement made in the treated group (T) divided by the measurement made in the vehicle treated control group (C). The tumor model used in this assay is Ependymoblastoma (intracerebral) in B6C3F1 mice

[1] = dose: 1.0 mg/kg/injection, schedule: Q01DX005 (ip), vehicle: saline
[2] = dose: 2.0 mg/kg/injection, schedule: Q01DX005 (ip), vehicle: saline
[3] = dose: 4.0 mg/kg/injection, schedule: Q01DX005 (ip), vehicle: saline
[4] = dose: 8.0 mg/kg/injection, schedule: Q01DX005 (ip), vehicle: saline
[5] = dose: 16.0 mg/kg/injection, schedule: Q01DX005 (ip), vehicle: saline
[6] = dose: 32.0 mg/kg/injection, schedule: Q01DX005 (ip), vehicle: saline
[7] = dose: 64.0 mg/kg/injection, schedule: Q01DX005 (ip), vehicle: saline
[8] = dose: 128.0 mg/kg/injection, schedule: Q01DX005 (ip), vehicle: saline
[9] = dose: 256.0 mg/kg/injection, schedule: Q01DX005 (ip), vehicle: saline
[10] = dose: 128.0 mg/kg/injection, schedule: Q01DX005 (ip), vehicle: Klucel (hydroxypropylcellulose) (HPC)

O=C(O)CC(NC(=O)CP(=O)(O)O)C(=O)O (configuration not stated)
T/C [1]: 117 % of control | T/C [2]: 104 % of control | T/C [3]: 108 % of control | T/C [4]: 104 % of control | T/C [5]: 107 % of control | T/C (dose: 27.0 mg/kg/injection, schedule: Q#ADX018 (ip), vehicle: saline): 99 % of control | T/C [6]: 101 % of control and 111 % of control | T/C (dose: 32.0 mg/kg/injection, schedule: Q04DX003 (ip), vehicle: saline): 96 % of control | T/C (dose: 45.0 mg/kg/injection, schedule: Q01DX009 (ip), vehicle: saline with Tween-80): 90 % of control | T/C (dose: 45.0 mg/kg/injection, schedule: Q12HX010 (ip), vehicle: saline): 103 % of control | T/C (dose: 45.0 mg/kg/injection, schedule: Q#A X010 (ip), vehicle: saline): 180 % of control | T/C (dose: 45.0 mg/kg/injection, schedule: Q#ADX018 (ip), vehicle: saline): 102 % of control | T/C [7]: 104 % of control and 114 % of control | T/C (dose: 64.0 mg/kg/injection, schedule: Q04DX003 (ip), vehicle: saline): 109 % of control | T/C (dose: 90.0 mg/kg/injection, schedule: Q01DX005 (ip), vehicle: saline): 95 % of control and 100 % of control | T/C (dose: 90.0 mg/kg/injection, schedule: Q01DX009 (ip), vehicle: saline with Tween-80): 109 % of control | T/C (dose: 90.0 mg/kg/injection, schedule: Q#A X010 (ip), vehicle: saline): 187 % of control | T/C (dose: 90.0 mg/kg/injection, schedule: Q#ADX018 (ip), vehicle: saline): 95 % of control | T/C (dose: 100.0 mg/kg/injection, schedule: Q12HX010 (ip), vehicle: saline): 109 % of control | T/C [8]: 101 % of control and 117 % of control | T/C (dose: 128.0 mg/kg/injection, schedule: Q04DX003 (ip), vehicle: saline): 105 % of control | T/C (dose: 180.0 mg/kg/injection, schedule: Q01DX005 (ip), vehicle: saline): 106 % of control and 110 % of control | T/C (dose: 180.0 mg/kg/injection, schedule: Q12HX010 (ip), vehicle: saline): 107 % of control | T/C (dose: 180.0 mg/kg/injection, schedule: Q#A X010 (ip), vehicle: saline): 172 % of control | T/C [9]: 110 % of control | T/C (dose: 256.0 mg/kg/injection, schedule: Q04DX003 (ip), vehicle: saline): 114 % of control

COC(=O)C(Cc1ccc(N(CCCl)CCCl)cc1)N=NNc1nc[nH]c1C(N)=O (configuration not stated)
T/C (dose: 4.0 mg/kg/injection, schedule: Q01DX005 (ip), vehicle: saline with Tween-80): 107 % of control | T/C (dose: 8.0 mg/kg/injection, schedule: Q01DX005 (ip), vehicle: saline with Tween-80): 101 % of control and 112 % of control | T/C (dose: 16.0 mg/kg/injection, schedule: Q01DX005 (ip), vehicle: saline with Tween-80): 104 % of control and 118 % of control | T/C (dose: 32.0 mg/kg/injection, schedule: Q01DX005 (ip), vehicle: saline with Tween-80): 123 % of control

NC(=O)c1ncn(C2OC(CO)C(O)C2O)c1O (configuration not stated)
T/C (dose: 25.0 mg/kg/injection, schedule: Q01DX005 (ip), vehicle: Klucel (hydroxypropylcellulose) (HPC)): 92 % of control | T/C (dose: 50.0 mg/kg/injection, schedule: Q01DX005 (ip), vehicle: Klucel (hydroxypropylcellulose) (HPC)): 101 % of control and 115 % of control | T/C (dose: 100.0 mg/kg/injection, schedule: Q01DX005 (ip), vehicle: Klucel (hydroxypropylcellulose) (HPC)): 96 % of control and 101 % of control | T/C (dose: 200.0 mg/kg/injection, schedule: Q01DX005 (ip), vehicle: Klucel (hydroxypropylcellulose) (HPC)): 105 % of control and 115 % of control | T/C (dose: 400.0 mg/kg/injection, schedule: Q01DX005 (ip), vehicle: Klucel (hydroxypropylcellulose) (HPC)): 111 % of control

CC(=O)O[C@H]1C(=O)[C@@]2(C)[C@H]([C@H](OC(=O)c3ccccc3)[C@]3(O)C[C@H](OC(=O)[C@H](O)[C@@H](NC(=O)c4ccccc4)c4ccccc4)C(C)=C1C3(C)C)[C@]1(OC(C)=O)CO[C@@H]1C[C@@H]2O
T/C (dose: 2.5 mg/kg/injection, schedule: Q01DX005 (ip), vehicle: Klucel (hydroxypropylcellulose) (HPC)): 107 % of control | T/C (dose: 5.0 mg/kg/injection, schedule: Q01DX005 (ip), vehicle: Klucel (hydroxypropylcellulose) (HPC)): 101 % of control | T/C (dose: 10.0 mg/kg/injection, schedule: Q01DX005 (ip), vehicle: Klucel (hydroxypropylcellulose) (HPC)): 91 % of control and 106 % of control | T/C (dose: 20.0 mg/kg/injection, schedule: Q01DX005 (ip), vehicle: Klucel (hydroxypropylcellulose) (HPC)): 91 % of control

COc1ccc2c(c1O)-c1cccc3c1[C@@H](C2)N(CCCl)CC3
T/C (dose: 0.25 mg/kg/injection, schedule: Q01DX005 (ip), vehicle: saline): 105 % of control | T/C (dose: 0.5 mg/kg/injection, schedule: Q01DX005 (ip), vehicle: saline): 100 % of control | T/C [1]: 96 % of control | T/C [2]: 99 % of control and 87 % of control | T/C (dose: 4.0 mg/kg/injection, schedule: Q01DX005 (ip), vehicle: Klucel (hydroxypropylcellulose) (HPC)): 98 % of control | T/C [3]: 104 % of control | T/C (dose: 8.0 mg/kg/injection, schedule: Q01DX005 (ip), vehicle: Klucel (hydroxypropylcellulose) (HPC)): 98 % of control | T/C [4]: 93 % of control | T/C [5]: 88 % of control | T/C [6]: 86 % of control

Cc1ncc(CO)c(C)c1O
T/C [10]: 102 % of control and 108 % of control | T/C (dose: 256.0 mg/kg/injection, schedule: Q01DX005 (ip), vehicle: Klucel (hydroxypropylcellulose) (HPC)): 101 % of control and 105 % of control

O=c1[nH]c(=O)n(C2CC(O)C(CO)O2)cc1C(F)(F)F (configuration not stated)
T/C (dose: 32.0 mg/kg/injection, schedule: Q01DX005 (ip), vehicle: Klucel (hydroxypropylcellulose) (HPC)): 102 % of control | T/C [10]: 97 % of control

O=c1n(CC2CO2)c(=O)n(CC2CO2)c(=O)n1CC1CO1 (configuration not stated)
T/C (dose: 16.4 mg/kg/injection, schedule: Q01DX004 (ip), vehicle: saline): 113 % of control | T/C (dose: 16.4 mg/kg/injection, schedule: Q01DX009 (ip), vehicle: saline): 107 % of control | T/C (dose: 20.0 mg/kg/injection, schedule: Q01DX009 (ip), vehicle: saline): 117 % of control and 119 % of control | T/C (dose: 20.5 mg/kg/injection, schedule: Q01DX004 (ip), vehicle: saline): 111 % of control | T/C (dose: 20.5 mg/kg/injection, schedule: Q01DX009 (ip), vehicle: saline): 112 % of control | T/C (dose: 25.0 mg/kg/injection, schedule: Q01DX005 (ip), vehicle: saline with Tween-80): 98 % of control | T/C (dose: 25.6 mg/kg/injection, schedule: Q01DX004 (ip), vehicle: saline): 107 % of control | T/C (dose: 25.6 mg/kg/injection, schedule: Q01DX009 (ip), vehicle: saline): 113 % of control | T/C (dose: 30.0 mg/kg/injection, schedule: Q01DX009 (ip), vehicle: saline): 165 % of control | T/C (dose: 32.0 mg/kg/injection, schedule: Q01DX004 (ip), vehicle: saline): 115 % of control | T/C (dose: 32.0 mg/kg/injection, schedule: Q01DX009 (ip), vehicle: saline): 121 % of control | T/C (dose: 49.2 mg/kg/injection, schedule: Q01DX001 (ip), vehicle: saline): 95 % of control | T/C (dose: 50.0 mg/kg/injection, schedule: Q01DX009 (ip), vehicle: saline): 113 % of control | T/C (dose: 61.4 mg/kg/injection, schedule: Q01DX001 (ip), vehicle: saline): 109 % of control | T/C (dose: 76.8 mg/kg/injection, schedule: Q01DX001 (ip), vehicle: saline): 112 % of control | T/C (dose: 96.0 mg/kg/injection, schedule: Q01DX001 (ip), vehicle: saline): 106 % of control | T/C (dose: 120.0 mg/kg/injection, schedule: Q01DX001 (ip), vehicle: saline): 121 % of control | T/C (dose: 150.0 mg/kg/injection, schedule: Q01DX001 (ip), vehicle: saline): 119 % of control

F
T/C [5]: 112 % of control | T/C [6]: 107 % of control | T/C [7]: 105 % of control

O=[N+]([O-])O.[Ga]
T/C [6]: 107 % of control | T/C [7]: 100 % of control | T/C [8]: 105 % of control

Nc1n[nH]c(N)n1
T/C [8]: 93 % of control and 88 % of control | T/C [9]: 95 % of control and 100 % of control | T/C (dose: 512.0 mg/kg/injection, schedule: Q01DX005 (ip), vehicle: saline): 92 % of control and 103 % of control | T/C (dose: 1024.0 mg/kg/injection, schedule: Q01DX005 (ip), vehicle: saline): 118 % of control and 87 % of control

COC1OC(CNC(=O)N(CCCl)N=O)C(O)C(O)C1O (configuration not stated)
T/C (dose: 0.5 mg/kg/injection, schedule: Q01DX001 (ip), vehicle: saline): 103 % of control and 119 % of control | T/C (dose: 1.0 mg/kg/injection, schedule: Q01DX001 (ip), vehicle: saline): 109 % of control and 86 % of control | T/C (dose: 2.0 mg/kg/injection, schedule: Q01DX001 (ip), vehicle: saline): 99 % of control and 103 % of control | T/C (dose: 4.0 mg/kg/injection, schedule: Q01DX001 (ip), vehicle: saline): 105 % of control and 109 % of control | T/C (dose: 8.0 mg/kg/injection, schedule: Q01DX001 (ip), vehicle: saline): 103 % of control and 111 % of control | T/C (dose: 16.0 mg/kg/injection, schedule: Q01DX001 (ip), vehicle: saline): 119 % of control
